How the values were obtained:
[1] = Intrinsic clearance (Clint) in human liver microsomes; assay type: in vitro ADME; settings: 0.5 mg/mL protein, NADPH, up to 30 min, first value of human/rat; for microsomal CLint at 0.8 μM: human, liver microsomes, pH 7.4, human liver microsomes
Method: (§1) Intrinsic Clearance (Clint) Assay Protocol:
(§2) A Tecan Genesis workstation (RSP 150/8) was used for to perform the microsomal incubations. Analysis was carried out using a Waters ACQUITY UPLC system coupled to an ABSciex API3000 mass spectrometer. Data analysis was performed using Assay Explorer (Symyx).
(§3) 0.1 M potassium phosphate buffer pH 7.4 containing 1 mM MgCl2 15 mM NADPH in phosphate buffer 4.4 mg protein/mL liver microsomes in phosphate buffer acetonitrile 20% DMSO in water
(§4) Each experiment consists of 12 test and 2 reference compounds. The reference compounds are incubated as a cocktail. Dilution of test compounds was done in 2 steps from a 10 mM DMSO stock solution. First 4 μL stock solution was added to 196 μL of 20% DMSO in potassium phosphate buffer pH 7.4. In a second step 10 μL of the first dilution were added to […] potassium phosphate buffer and 100 μL internal standard solution to a final concentration of 0.8 μM. 100 μL of the final compound dilution were aliquoted into a 96 deep well plate. 12.5 μL liver microsomes were added to each well (0.5 mg/mL final protein concentration) and the samples preincubated for 5 min at 37° C. and 800 rpm agitation.
(§5) After the preincubation, 250 μL cold acetonitrile were added to the 0 min samples to prevent a reaction. Following this, 12.5 μL NADPH solution were added to all wells to start the incubation, with the exception of the 0 min and 30 min controls without cofactor, where the NADPH was substituted for phosphate buffer.
(§6) The incubations were stopped after 5, 10, 20 and 30 min by adding 250 μL cold acetonitrile to the individual wells.
(§7) The quenched samples were then centrifuged at 4000 g for 1 h at 4° C. 100 μL of the supernatant were transferred into 96 well plates for analysis.
(§8) The metabolic stability of each compound was determined by measurement of the change in LC-MS/MS peak area over time. Assay Explorer software was used to automatically calculate the slope k of the decline. The intrinsic clearance (Clint) of each compound was then calculated according to the formula:
(§9) Clint (μL/min/mg protein)=k1000/protein concentration.

[2] = Intrinsic clearance (Clint) in rat liver microsomes; assay type: in vitro ADME; settings: 0.5 mg/mL protein, NADPH, up to 30 min, second value of human/rat; for microsomal CLint at 0.8 μM: rat, liver microsomes, pH 7.4, rat liver microsomes
Method: as §1, §2, §3, §4, §5, §6, §7, §8, §9

FSHR = biological target: T1, FSHR (Homo sapiens, UniProt P23945); assay: EC50 of cyclic AMP production in CHO FSHR cells + EC20 FSH (HTRF); assay type: cell-based; settings: Cho-FSHR-LUC-1-1-43 cells; for EC50: + EC20 FSH (0.265 pM), 200 μM IBMX, 1 h at 37° C., read-out: EC50 of cAMP production; for Emax: 1 h, read-out: EC50 of cAMP production (% effect)
T1 construct: expressed in transfected cells; host or cells: CHO (Cho-FSHR-LUC-1-1-43)
T1 sequence (P23945 18-695): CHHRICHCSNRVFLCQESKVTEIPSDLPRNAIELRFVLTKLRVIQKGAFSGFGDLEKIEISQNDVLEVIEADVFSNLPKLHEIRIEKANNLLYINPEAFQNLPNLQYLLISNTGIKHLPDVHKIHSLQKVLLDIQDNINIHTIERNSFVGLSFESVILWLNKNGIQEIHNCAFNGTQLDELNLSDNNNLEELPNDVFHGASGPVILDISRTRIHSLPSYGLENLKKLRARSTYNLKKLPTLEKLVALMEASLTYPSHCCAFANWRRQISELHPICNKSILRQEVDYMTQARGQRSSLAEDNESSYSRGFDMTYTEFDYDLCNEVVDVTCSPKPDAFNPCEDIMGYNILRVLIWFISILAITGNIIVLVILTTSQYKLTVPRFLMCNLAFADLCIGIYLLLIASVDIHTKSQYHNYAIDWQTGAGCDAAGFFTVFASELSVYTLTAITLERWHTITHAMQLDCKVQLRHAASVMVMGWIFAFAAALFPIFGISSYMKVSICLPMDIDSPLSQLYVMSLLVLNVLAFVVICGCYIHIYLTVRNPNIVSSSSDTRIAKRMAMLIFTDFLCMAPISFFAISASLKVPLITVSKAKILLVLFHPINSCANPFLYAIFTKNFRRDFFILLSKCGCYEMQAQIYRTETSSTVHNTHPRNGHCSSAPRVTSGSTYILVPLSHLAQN
Method: EC50 of Cyclic AMP Production in CHO FSHR Cells+EC20 FSH
2500 Cho-FSHR-LUC-1-1-43 cells were plated per well in 5 μL of phenol red free DMEM/F12+1% FBS. Cells were plated in 384 well, solid white low volume plates (Greiner 784075) by Multidrop. Cells were assayed by adding […] of 2×EC20 FSH/IBMX in DMEM/F12+0.1% BSA) by Multidrop to 2 μL of test compound stamped in 384 well plates (compounds are diluted 1:50). The final FSH concentration was 0.265 pM, and the final IBMX concentration was 200 μM. The compound plate map was as follows: Column 1: 2 μL of DMSO; Column 2: 2 μL of DMSO; Columns 3-12 and 13-24: 2 μL of test compound, diluted 1:4 in 100% DMSO, or 2 μL of FSH, diluted 1:4 in DMEM/F12+0.1% BSA. The starting concentration for FSH was 50 nM (final concentration was 0.5 nM). Furthermore, Column 23 contained 2 μL of EC100 FSH reference (100×) (diluted in DMEM/F12+0.1% BSA) at a final concentration of 0.5 nM, and Column 24 contained 2 μL of 1 mM AS707664/2 reference compound 2. 5 μL of compound+EC20 FSH mixture were transferred to cell plates (1:2 dilution into 5 μL of cell media) The plates were incubated at 37° C. for 1 h. 10 μL of mixed HTRF (CisBio #62AM4PEC) reagents were added per well and incubated at room temperature for 1 h. The plates were read on Envision using the cAMP HTRF—low volume 384 well protocol. The readout was the calculated fluorescence ratio (665 nm/620 nm).

[3] = + EC20 FSH, % effect in brackets

Row | Compound | Clint (human) ([1]; human liver microsomes) | Clint (rat) ([2]; rat liver microsomes) | EC50 (FSHR) | EC50 of cAMP production (% effect) (FSHR; + EC20 FSH, % effect in brackets, 60 min) | microsomal CLint at 0.8 μM [1] | microsomal CLint at 0.8 μM [2] | Emax (FSHR; [3])
1 | [2H]C([2H])(NC(=O)C[C@H]1S[C@@H](c2ccc(C#Cc3ccccc3)cc2)N(c2cccc(C(N)=O)c2)C1=O)C([2H])([2H])c1ccc(OC)c(OCC)c1 (single isomer, unassigned) [Compound 14] | 492 μL/min/mg protein | 95 μL/min/mg protein | 2 nM | (99) % |  |  | 
2 | [2H]c1c([2H])c([2H])c(C#Cc2c([2H])c([2H])c([C@H]3N(c4cccc(C(N)=O)c4)C(=O)[C@@H](CC(=O)NC([2H])([2H])C([2H])([2H])c4ccc(OC([2H])([2H])[2H])c(OCC)c4)[S@@+]3[O-])c([2H])c2[2H])c([2H])c1[2H] (single isomer, unassigned) [Compound 20] |  |  | 25 nM |  | 35 µL/min/mg | 18 µL/min/mg | 103%
3 | [2H]c1c([2H])c([2H])c(C#Cc2c([2H])c([2H])c([C@H]3N(c4cccc(C(N)=O)c4)C(=O)[C@@H](CC(=O)NC([2H])([2H])C([2H])([2H])c4ccc(OC([2H])([2H])[2H])c(OC([2H])([2H])[2H])c4)[S@@+]3[O-])c([2H])c2[2H])c([2H])c1[2H] (single isomer, unassigned) [Compound 21] |  |  | 113 nM |  | 351 µL/min/mg | 241 µL/min/mg | 103%

More lines, in order of falling EC50 (FSHR), values ahead:

Row | Clint (human) ([1]; human liver microsomes) | Clint (rat) ([2]; rat liver microsomes) | EC50 (FSHR) | EC50 of cAMP production (% effect) (FSHR; + EC20 FSH, % effect in brackets, 60 min) | microsomal CLint at 0.8 μM [1] | microsomal CLint at 0.8 μM [2] | Emax (FSHR; [3]) | Compound
4 |  |  | 1.9 nM |  | 106 µL/min/mg | 24 µL/min/mg | 97% | [2H]C([2H])(NC(=O)C[C@H]1S[C@@H](c2ccc(C#Cc3ccccc3)cc2)N(c2cccc(C(N)=O)c2)C1=O)C([2H])([2H])c1ccc(OC)c(OC)c1 [Compound 2, 3-((2S,5R)-4-oxo-5-(2-oxo-2-((1,1,2,2-d4-2-(3,4-dimethoxyphenyl)ethyl)amino)ethyl)-2-(4-(phenylethynyl)phenyl)thiazolidin-3-yl)benzamide]
5 |  |  | 1.7 nM |  | 111 µL/min/mg | 29 µL/min/mg | 97% | [2H]C([2H])([2H])Oc1ccc(C([2H])([2H])C([2H])([2H])NC(=O)C[C@H]2S[C@@H](c3ccc(C#Cc4ccccc4)cc3)N(c3cccc(C(N)=O)c3)C2=O)cc1OC [Compound 3, 3-((2S,5R)-4-oxo-5-(2-oxo-2-((1,1,2,2-d4-2-(3-methoxy-4-(methoxy-d3)phenyl)ethyl)amino)ethyl)-2-(4-(phenylethynyl)phenyl)thiazolidin-3-yl)benzamide]
6 |  |  | 0.3 nM |  | 182 µL/min/mg | 120 µL/min/mg | 98% | CCOc1cc(CCNC(=O)C[C@H]2S[C@@H](c3ccc(C#Cc4ccccc4)cc3)N(c3cccc(C(N)=O)c3)C2=O)ccc1OC [Reference compound, reference compound]

Source: patent US20150111933A1, “Deuterated Thiazolidinone Analogues as Agonists for Follicle Stimulating Hormone Receptor” (Merck Patent GmbH, priority 2012, published 2015)
